Measurements: ChEMBL document CHEMBL4007423, “Discovery of quinone-directed antitumor agents selectively bioactivated by NQO1 over CPR with improved safety profile” (Eur J Med Chem, 2017)
Activity calls are given as the source filed them. No cut-off for these calls is given here.

Assays:
[1] = molecular target: T1, NADPH--cytochrome P450 reductase (Homo sapiens, UniProt P16435); assay: Substrate activity at recombinant human CPR expressed in baculovirus infected insect cells assessed as compound reduction rate by measuring NADPH consumption per umol of enzyme preincubated for 3 mins followed by NADPH addition measured for 5 mins at 2 sec time interval by UV-Visible spectroscopic method; assay type: ADME
T1 sequence (P16435 whole entry): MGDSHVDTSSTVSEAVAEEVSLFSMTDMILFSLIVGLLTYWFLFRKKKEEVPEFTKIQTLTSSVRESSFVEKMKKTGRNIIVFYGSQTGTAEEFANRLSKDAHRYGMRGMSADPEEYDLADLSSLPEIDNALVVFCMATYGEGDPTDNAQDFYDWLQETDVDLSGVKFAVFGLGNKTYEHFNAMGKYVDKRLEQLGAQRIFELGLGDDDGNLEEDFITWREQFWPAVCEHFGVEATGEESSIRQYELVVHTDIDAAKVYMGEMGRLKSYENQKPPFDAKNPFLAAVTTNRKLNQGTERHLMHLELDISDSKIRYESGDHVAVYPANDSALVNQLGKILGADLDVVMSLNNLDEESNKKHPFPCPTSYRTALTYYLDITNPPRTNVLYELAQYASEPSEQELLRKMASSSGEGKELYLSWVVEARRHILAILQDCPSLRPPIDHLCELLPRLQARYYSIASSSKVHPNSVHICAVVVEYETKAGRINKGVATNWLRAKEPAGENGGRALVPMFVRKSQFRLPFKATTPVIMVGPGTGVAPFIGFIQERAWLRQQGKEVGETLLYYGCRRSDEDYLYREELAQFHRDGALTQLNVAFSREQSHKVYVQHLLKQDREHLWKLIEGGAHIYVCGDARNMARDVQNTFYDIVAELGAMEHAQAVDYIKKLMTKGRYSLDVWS

Homo sapiens = organism: Homo sapiens; assay: Selectivity ratio of compound reduction rate catalyzed by recombinant human NQO1 expressed in Escherichia coli to compound reduction rate catalyzed by recombinant human CPR expressed in baculovirus infected insect cells
[2] = Electrochemical behavior of the compound assessed as electrochemical redox potential with reference to ferrocene at 1 mM using Ag/AgCl reference electrode measured up to -2 V at potential sweep rates of 50 mV/s by cyclic voltammetry
[3] = Selectivity ratio of IC50 for substrate activity at CPR in human L02 cells assessed as cell growth inhibition to IC50 for substrate activity at NQO1 in human A549 cells assessed as cell growth inhibition
NCI-H596 = assay: Cytotoxicity against NQO1-deficient human NCI-H596 cells assessed as cell growth inhibition treated for 24 hrs measured after 72 hrs by MTT assay; assay type: functional, cell-based
A549 [4] = assay: Antitumor activity against human A549 cells xenografted in athymic nude mouse assessed as tumor growth inhibition at 30 mg/kg, iv administered every other day for 3 weeks measured twice per week during compound dosing relative to control; assay type: functional; settings: 504 h, read-out: TGI
Mus musculus [5] = assay: Toxicity in athymic nude mouse xenografted with human A549 cells assessed as change in body weight at 30 mg/kg, iv administered every other day for 3 weeks measured twice per week during compound dosing; assay type: organism-based; settings: in vivo, 504 h
Mus musculus [6] = assay: Toxicity in athymic nude mouse xenografted with human A549 cells assessed as change in body weight at 15 to 30 mg/kg, iv administered every other day for 3 weeks measured twice per week during compound dosing; assay type: organism-based; settings: in vivo, 504 h
A549 [7] = assay: Cytotoxicity against NQO1 inhibitor dicoumarol pretreated human A549 cells assessed as cell growth inhibition treated for 24 hrs measured after 72 hrs by MTT assay; assay type: functional, cell-based
A549 [8] = assay: Antitumor activity against human A549 cells xenografted in athymic nude mouse assessed as tumor growth inhibition at 15 mg/kg, iv administered every other day for 3 weeks measured twice per week during compound dosing; assay type: functional, organism-based
[9] = molecular target: T1, NADPH--cytochrome P450 reductase; assay: Substrate activity at CPR in human L02 cells assessed as CPR-mediated one-electron reduction of compound by measuring cell growth inhibition at 20 to 100 uM treated for >8 hrs measured after 72 hrs by MTT assay; assay type: cell-based

Compound | Activity [1] [µmol/min] | Selectivity ratio (Homo sapiens) | Activity [2] [V] | other results
CC1OC2=C(C(=O)C(=O)c3ccccc32)C1C (configuration not stated) | 659 | 1.1 |  | 
CC1OC2=C(C(=O)C(=O)c3ccccc32)C1(C)C (configuration not stated) | 1437 | 0.7 | -1.01 | 
CCc1coc2c1C(=O)C(=O)c1ccc(C)cc1-2 | 1014 | 1.17 |  | 
Cc1coc2c1C(=O)C(=O)c1c(C)ccc(C)c1-2 | 672 | 1.38 | -1.07 | Ratio IC50 [3]: 5.86
CCc1coc2c1C(=O)C(=O)c1cc(C)ccc1-2 | 796 | 1.63 |  | Ratio IC50 [3]: 8.06
Cc1cc2c(cc1C)-c1occ(C)c1C(=O)C2=O | 142 |  | -1.09 | IC50 (NCI-H596): 35 µM; inhibition in vivo at 30 mg/kg (A549 [4]): 67.5%; Activity (Mus musculus [5]): Non-Toxic; Activity (Mus musculus [6]): Non-Toxic; Ratio IC50 [3]: 10.6; IC50 (A549 [7]): 21 µM; TGI (A549 [8]): Active
CCc1coc2c1C(=O)C(=O)c1cc(C)c(C)cc1-2 | 818 |  |  | 
O=C1C(=O)c2ccoc2-c2ccccc21 | 1221 | 1.18 | -0.98 | 
CCc1coc2c1C(=O)C(=O)c1ccccc1-2 | 1382 | 0.54 |  | 
Cc1ccc2c(c1)-c1occ(C)c1C(=O)C2=O | 835 | 1.25 | -1.05 | Ratio IC50 [3]: 1.54
Cc1ccc2c(c1)C(=O)C(=O)c1c(C)coc1-2 | 891 | 1.82 | -1.04 | Ratio IC50 [3]: 2.59
CC1(C)CCC2=C(O1)c1ccccc1C(=O)C2=O [LAPACHONE] | 923 |  | -1.02 | inhibition in vivo at 30 mg/kg (A549 [4]): 70.7%; growth inhibition (GI) [9]: Active
Cc1cc2c(cc1C)-c1occc1C(=O)C2=O | 400 |  |  | 
Cc1coc2c1C(=O)C(=O)c1ccccc1-2 | 1201 | 0.63 | -1.03 | 
CC1CC2=C(O1)c1ccccc1C(=O)C2=O (configuration not stated) | 905 | 0.71 |  | 
CC1OC2=C(C(=O)c3ccccc3C2=O)C1(C)C (stereo not drawn) [ALPHA-DUNNIONE] | 1011 | 0.72 | -1.19 | 
CC1(C)C=CC2=C(O1)C(=O)c1ccccc1C2=O [DEHYDRO-ALPHA-LAPACHONE] | 852 | 0.91 | -1.22 | 
Cc1cc(=O)n(C)c2c1C(=O)C1=C(C=CC(C)(C)O1)C2=O | 1422 | 0.81 | -0.9 | 
COc1cccc2c1C1=C(C(=O)C2=O)C(C)(C)C(C)O1 (configuration not stated) | 764 |  | -1.1 | 
CC1(C)CCC2=C(O1)C(=O)c1ccccc1C2=O [ALPHA-LAPACHONE] | 1010 | 0.72 | -1.22 | 
CC1(C)CC2=C(O1)c1ccccc1C(=O)C2=O [NOR-BETA-LAPACHONE] | 1427 | 0.52 |  | 
COc1ccc2c(c1)C(=O)C(=O)C1=C2OC(C)C1(C)C (configuration not stated) | 782 |  | -1.09 | 
COc1ccc2c(c1)C1=C(C(=O)C2=O)C(C)(C)C(C)O1 (configuration not stated) | 812 |  | -1.13 | 
